Measured values taken from US20220220106A1, “QUINOLINE COMPOUNDS AND PHARMACEUTICAL COMPOSITIONS AND USES THEREOF” (Academy of Military Medical Sciences, priority 2019, published 2022).
Like-named read-outs stand apart in the source and are kept apart here.

Assay: In vivo drug metabolism (pharmacokinetics) in mice, iv and po
Design: species or system C57 male mice
Conditions: for apparent volume of distribution (Vss), in words / area under curve (AUC) through injection administration route, in words / clearance rate (CL), in words: iv; for Tmax / AUC / clearance / half-life / Vd / C0 / Cmax: male, plasma; for Tmax: C57, mouse, 10 mg/kg; for AUC / clearance / half-life / Vd / C0 / Cmax: mouse; for clearance: read-out: CL iv; for Vd: read-out: Vss iv; for F po: oral bioavailability, po 10 mg/kg vs iv 1 mg/kg
Description: Experimental animals: C57 male mice (purchased from Beijing Vital River Laboratory Animal Technology Co., Ltd.), bred for 6-8 weeks and weighing 20-30 g, 3 mice in each group of iv/po groups, a total of 6 groups.
Preparation of Sample Solutions:
(1) Preparation of sample solution (1 mg/kg, 5 mL/kg) for injection (iv): 1 mg of the sample to be tested was dissolved in 0.5 mL DMSO, mixed by a vortex mixer, and treated ultrasonically to obtain a stock solution (2 mg/mL); 0.10 mL of the stock solution (2 mg/mL) was added to a vial, then 0.4 mL of PEG400 and 0.5 mL of water were added, and mixed by a vortex shaker, treated ultrasonically to obtain a sample solution with a concentration of 0.2 mg/mL.
(2) Preparation of sample solution (10 mg/kg, 10 mL/kg) for oral administration (po): 1 mg of the sample to be tested was dissolved in 1 mL of “0.5% CMC/0.1% Tween-80 aqueous solution”, mixed by a vortex mixer, and treated ultrasonically to obtain a suspension of the sample to be tested with a concentration of 1 mg/mL.
Liquid Chromatography Method:
(1) Chromatographic column: Waters XSELECT CSH C18, 2.5 μm 2.1×50 mm chromatographic column.
(2) Mobile phase: Phase A: 5% acetonitrile in aqueous solution (0.1% formic acid); Phase B: 95% acetonitrile in aqueous solution (0.1% formic acid).
(3) Flow rate: 0.6 mL/min.
(4) Sampling volume: 20 μL.
For each compound, po group and iv group were set for administration. All experimental animals were fasted overnight before administration, and all administration was performed at room temperature.
Sampling time: for iv group, sampling was performed at 0.083, 0.25, 0.5, 1, 2, 4, 8 and 24 hours after injection administration (iv); for po group, sample was performed at 0.25, 0.5, 1, 2, 4, 8 and 24 hours after oral administration (po).
(1) At each time point, about 0.03 mL of blood was collected. The blood of each sample was transferred to a plastic microcentrifuge tube containing heparin sodium anticoagulant, mixed well with the anticoagulant, and then cooled on ice and centrifuged.
(2) The blood sample was centrifuged at 4000 rpm for 5 minutes at 4° C. to obtain plasma.
(3) The samples was stored in a refrigerator at −75±15° C. for later test.
Analysis and Identification:
The mixed solution of acetonitrile and water (1:1) was used to dilute the stock solution to prepare a series of working solutions.
3 μL of working solution (5, 10, 20, 50, 100, 500, 1000, 5000, 10000 ng/mL) was added to 30 μL of C57 mouse blank plasma to obtain a standard solution with a concentration of 0.5-1000 ng/mL (0.5, 1, 2, 5, 10, 50, 100, 500, 1000 ng/mL), in total of 33 μL. Four quality control samples of 1 ng/mL, 2 ng/mL, 50 ng/mL and 800 ng/mL were used to calibrate the standard curve.
(2) The quality control samples were prepared on the day of analysis, and the method was the same as the standard solution.
(3) 200 μL of acetonitrile containing internal standard solution was added to 33 μL of standard samples, 33 μL of quality control samples and 33 μL of unknown sample (30 μL of plasma and 3 μL of blank solution) to precipitate protein, respectively. The samples were mixed by a vortex mixer for 30 seconds and mixed well. The precipitated samples were centrifuged for 15 minutes at 4° C. and 4000 rpm.
(4) The supernatant was pipetted quantitatively and diluted by 3 times with water, then the diluted supernatant was loaded and quantitatively analyzed by liquid chromatography-mass spectrometry technology.
(5) Detection data were obtained, and pharmacokinetic parameters such as T1/2, Cmax, AUC, AUC, CL, Vss, F were calculated.

[1] = po, po 10 mg/kg, read-out: Tmax po
[2] = po, po, read-out: peak time Tmax
[3] = iv 1 mg/kg, C57 mice, read-out: AUC iv
[4] = iv 1 mg/kg, C57 mice, read-out: T1/2 iv (converted)
[5] = po 10 mg/kg, C57 mice, read-out: AUC po
[6] = po 10 mg/kg, C57 mice, read-out: T1/2 po (converted)

Compound | half-life T1/2, in words (C57 mice) | apparent volume of distribution (Vss), in words (C57 mice) | area under curve (AUC) through injection administration route, in words (C57 mice) | Tmax [1] [min] | Tmax [2] [min] | AUC [3] [ng·h/mL] | clearance (iv 1 mg/kg, C57 mice) [mL/min/kg] | half-life [4] [min] | Vd (iv 1 mg/kg, C57 mice) [L/kg] | AUC [5] [ng·h/mL] | half-life [6] [min] | C0 (iv 1 mg/kg, C57 mice) [ng/mL] | Cmax (po 10 mg/kg, C57 mice) [ng/mL] | clearance rate (CL), in words (C57 mice) | F po (C57 mice) [%] | AUC through oral administration, in words (po, C57 mice) | highest blood concentration C0/Cmax, in words (C57 mice)
COc1ccc(-c2ccc3ncc4ccc(=O)n(-c5cccc(C(F)(F)F)c5)c4c3c2)cn1 [HTL-7-03, 9-[3-(6-methoxy)pyridyl]-2-oxo-1-[3-(trifluoromethyl)phenyl]-1,2-dihydrobenzo[h][1,6]naphthyridine] | relatively longer half-life | slightly higher | relatively high | 40 | > 30 | 668 | 24.1 | 110 | 3.24 | 1640 | 74.4 | 596 | 565 |  |  |  | 
CCC(=O)Nc1ccc(-c2ccc3ncc4ccc(=O)n(-c5cccc(C(F)(F)F)c5)c4c3c2)cn1 [HTL-6-45, 9-[3-(6-propionylamino)pyridyl]-2-oxo-1-[3-(trifluoromethyl)phenyl]-1,2-dihydrobenzo[h][1,6]naphthyridine] |  | slightly higher |  | 15 | 15 | 95 | 176 | 19.4 | 3.25 | 35.4 | 50.4 | 398 | 42.9 | relatively higher clearance rate | 3.89 |  | 
CN1CCN(c2ccc(-c3ccc4ncc5ccc(=O)n(-c6cccc(C(F)(F)F)c6)c5c4c3)cn2)CC1 [HTL-7-17, 9-{3-[6-(4-methylpiperazin-1-yl)pyridyl]}-2-oxo-1-[3-(trifluoromethyl)phenyl]-1,2-dihydrobenzo[h][1,6]naphthyridine] |  | slightly higher |  | 20 | 19.8 | 168 | 99 | 43.1 | 3.59 | 357 | 94.8 | 364 | 144 | relatively higher clearance rate |  |  | 
O=c1ccc2cnc3ccc(-c4ccc(F)nc4)cc3c2n1-c1cccc(C(F)(F)F)c1 [HTL-7-01, 9-[3-(6-fluoro)pyridyl]-2-oxo-1-[3-(trifluoromethyl)phenyl]-1,2-dihydrobenzo[h][1,6]naphthyridine] |  | lower | relatively high | 30 | > 30 | 592 | 27.8 | 63 | 2.29 | 699 | 121 | 574 | 298 |  | 12.2 | lower | 
O=c1ccc2cnc3ccc(-c4cccnc4F)cc3c2n1-c1cccc(C(F)(F)F)c1 [HTL-6-48, 9-[3-(2-fluoro)pyridyl]-2-oxo-1-[3-(trifluoromethyl)phenyl]-1,2-dihydrobenzo [h][1,6]naphthyridine] |  | lower | relatively high | 15 | 15 | 651 | 25.6 | 50.4 | 1.59 | 1330 | 59.4 | 651 | 1290 |  |  |  | relatively high
